Data on 6 molecules can be found in article PMC12679848, “Sulphonamide derivatives with a triazine core as novel inducers of apoptosis and pyroptosis in glioblastoma multiforme cells” (Journal of Enzyme Inhibition and Medicinal Chemistry, 2025).

Where two headings read alike, the source gives them in different places.

One series relates to A172. In words: MTT assay, A172. The conditions noted are these: Homo sapiens, A172, 24 h of incubation. It is filed as cell-based. The method, then: (§1) Human glioblastoma cell lines (A172 CRL-1620™, U-87 MG HTB-14™, U-118 MG HTB-15™, T98G CRL-1690™) and the mouse astrocyte cell line (C8-D1A CRL-2541™) were obtained from the American Type Culture Collection (ATCC, Manassas, VA, USA). The cell lines were cultured in complete medium: DMEM (Corning, Kennebunk, ME, USA) for C8-D1A and T98G, and EMEM (ATCC, Manassas, VA, USA) for A172, U-87 MG, U118MG. The media were supplemented with 10% foetal bovine serum (Eurx, Gdansk, Poland) and 1% penicillin-streptomycin solution (Corning, Kennebunk, ME, USA). Cells were cultured in cell culture flasks (Sarstedt, Numbrecht, Germany) at 37 °C in 5% CO2. For experiments, cells were washed with phosphate-buffered saline without calcium and magnesium (Corning, Kennebunk, ME, USA) and treated with 0.05% trypsin and 0.02% EDTA (Corning, Kennebunk, ME, USA). Cells were counted using a Sceptre 3.0 cell counter (Merck Millipore, Burlington, MA, USA) prior to seeding into plates. For 6-well plates, 5 x 10^5 cells/mL were seeded, while for 96-well plates (Sarstedt, Numbrecht, Germany), 1 x 10^5 cells/mL were seeded in 100 μL of the medium.
(§2) The cell lines were seeded in 96-well plates and cultured according to the methodology described in the previous section. Cells were then treated with the novel derivatives MM118 and MM119 and the reference compound temozolomide (TMZ) (Sigma-Aldrich, St. Louis, MO, USA) at concentrations of 0.1, 0.25, 0.5, 1.0, 2.5, 5.0, and 10.0 μM for 24 h. The MTT assay was performed using a solution of 3–(4,5-dimethyl-2-thiazolyl)-2,5-diphenyl-2H-tetrazolium bromide (Sigma-Aldrich, St. Louis, MO, USA) at a concentration of 5 mg/mL in phosphate-buffered saline without calcium and magnesium (Corning, Kennebunk, ME, USA). After 24 h incubation with test compounds, 10 μL MTT solution was added to each well, and cells were incubated for another 2 h at 37 °C. The cells were then lysed in 100 μL lysis buffer (25 mM HCl, 2% acetic acid, 3% DMF, and 5% SDS, adjusted to pH 4.7). Absorbance was measured at 570 nm using an Absorbance 96 microplate reader (Byonoy GmbH, Hamburg, Germany).
(In general: Formazan colour is commonly taken as a measure of viable cells.)

A further series deals with U-87 MG. In words: MTT assay, U-87 MG. It is filed as cell-based. The conditions noted are these: Homo sapiens, 24 h of incubation. The method, then:
as §1, §2

The subject of the next series is U-118 MG. In words: MTT assay, U-118 MG. Particulars: Homo sapiens, 24 h of incubation, read-out: IC50 values ± SEM, MTT assay. It is filed as cell-based. The method, then:
as §1, §2

For a further series, the system named is T98G. In words: MTT assay, T98G. The class given is cell-based. Particulars: Homo sapiens, 24 h of incubation. The method, then:
as §1, §2

Another series has as its system C8-D1A. In words: MTT assay, C8-D1A astrocytes. The class given is cell-based. The conditions noted are these: C8-D1A mouse astrocytes, 24 h of incubation. The method, then:
as §1, §2

In another series the test system is DNA. Set-up: method as in PMID 36835469. The conditions noted are these: comet assays; cited from earlier work.
Where [1] appears, read: A 172, read-out: IC50 values ± SEM, MTT assay.
[2] abbreviates: read-out: IC50 values ± SEM, MTT assay.
Where [3] appears, read: 24 h, heading: IC50 values ± SEM, MTT assay.

`Cc1nn(-c2ccc(S(=O)(=O)NC[C@@H](O)CO)cc2)c2nn3nnnc3nc12` [MM127]: the IC50 in the series with A172 (setting [1]), with U-87 MG (setting [2]), in the series on U-118 MG, with T98G (setting [2]) and in the series with C8-D1A (setting [2]) was above 10 µM in each case.

Turning to `COC(=O)C1CC(O)CN1S(=O)(=O)c1ccc(-n2nc(C)c3nc4nnnn4nc32)cc1` (stereo not shown) [MM129, Methyl (Z)-4-hydroxy-1-[4–(7-methyl-5H-pyrazolo[4,3-e]tetrazolo[1,5-b][1]^,[2]^,[4]triazin-5-yl)phenyl-sulfonyl]pyrrolidine-2-carboxylate], the IC50 (as a rule, the point on the concentration scale where inhibition reaches its midpoint) in the series on U-87 MG (setting [3]) amounted to 2.35 µM; with C8-D1A (setting [3]), 2.86 µM. For the same molecule, the “DNA damage (single-strand and double-strand breaks)” value with DNA is on record as “induce DNA damage”.

`Cc1nn(-c2ccc(S(=O)(=O)NC[C@H](O)CO)cc2)c2nn3nnnc3nc12` [MM126]: the IC50 with A172 (setting [1]), in the series with U-87 MG (setting [2]), with U-118 MG, in the series on T98G (setting [2]) and with C8-D1A (setting [2]) was above 10 µM throughout.

As to `COC(=O)C1CCCN1S(=O)(=O)c1ccc(-n2nc(C)c3nc4nnnn4nc32)cc1` (stereo not shown) [MM128, Methyl 1-[4–(7-methyl-5H-pyrazolo[4,3-e]tetrazolo[1,5-b][1]^,[2]^,[4]triazin-5-yl)phenylsulfonyl]-pyrrolidine-2-carboxylate], the IC50 in the series on A172 (A 172, 24 h, heading: IC50 values ± SEM, MTT assay) turned out to be 1.65 µM; in the series with U-118 MG it was 563 µM; in the series on T98G (setting [3]), 1.53 µM.

With `Cc1nn(-c2ccc(S(=O)(=O)N[C@@H](CO)CC(C)C)cc2)c2nn3nnnc3nc12` [MM124], the IC50 in the series on A172 (setting [1]), with U-87 MG (setting [2]), in the series with U-118 MG, with T98G (setting [2]) and with C8-D1A (setting [2]) was above 10 µM throughout.

For `Cc1nn(-c2ccc(S(=O)(=O)N[C@H](C)CO)cc2)c2nn3nnnc3nc12` [MM131], the “DNA damage (single-strand and double-strand breaks)” value in the series with DNA was “induce DNA damage”.
